In this data set the target is Bile salt export pump (Homo sapiens, UniProt O95342). The data set can be described thus: TP_TRANSPORTER: Taq-Man PCR in vitro, primary hepatocytes. It counts as functional, cell-based, Hepatocyte.
Chain of Bile salt export pump (O95342 whole entry): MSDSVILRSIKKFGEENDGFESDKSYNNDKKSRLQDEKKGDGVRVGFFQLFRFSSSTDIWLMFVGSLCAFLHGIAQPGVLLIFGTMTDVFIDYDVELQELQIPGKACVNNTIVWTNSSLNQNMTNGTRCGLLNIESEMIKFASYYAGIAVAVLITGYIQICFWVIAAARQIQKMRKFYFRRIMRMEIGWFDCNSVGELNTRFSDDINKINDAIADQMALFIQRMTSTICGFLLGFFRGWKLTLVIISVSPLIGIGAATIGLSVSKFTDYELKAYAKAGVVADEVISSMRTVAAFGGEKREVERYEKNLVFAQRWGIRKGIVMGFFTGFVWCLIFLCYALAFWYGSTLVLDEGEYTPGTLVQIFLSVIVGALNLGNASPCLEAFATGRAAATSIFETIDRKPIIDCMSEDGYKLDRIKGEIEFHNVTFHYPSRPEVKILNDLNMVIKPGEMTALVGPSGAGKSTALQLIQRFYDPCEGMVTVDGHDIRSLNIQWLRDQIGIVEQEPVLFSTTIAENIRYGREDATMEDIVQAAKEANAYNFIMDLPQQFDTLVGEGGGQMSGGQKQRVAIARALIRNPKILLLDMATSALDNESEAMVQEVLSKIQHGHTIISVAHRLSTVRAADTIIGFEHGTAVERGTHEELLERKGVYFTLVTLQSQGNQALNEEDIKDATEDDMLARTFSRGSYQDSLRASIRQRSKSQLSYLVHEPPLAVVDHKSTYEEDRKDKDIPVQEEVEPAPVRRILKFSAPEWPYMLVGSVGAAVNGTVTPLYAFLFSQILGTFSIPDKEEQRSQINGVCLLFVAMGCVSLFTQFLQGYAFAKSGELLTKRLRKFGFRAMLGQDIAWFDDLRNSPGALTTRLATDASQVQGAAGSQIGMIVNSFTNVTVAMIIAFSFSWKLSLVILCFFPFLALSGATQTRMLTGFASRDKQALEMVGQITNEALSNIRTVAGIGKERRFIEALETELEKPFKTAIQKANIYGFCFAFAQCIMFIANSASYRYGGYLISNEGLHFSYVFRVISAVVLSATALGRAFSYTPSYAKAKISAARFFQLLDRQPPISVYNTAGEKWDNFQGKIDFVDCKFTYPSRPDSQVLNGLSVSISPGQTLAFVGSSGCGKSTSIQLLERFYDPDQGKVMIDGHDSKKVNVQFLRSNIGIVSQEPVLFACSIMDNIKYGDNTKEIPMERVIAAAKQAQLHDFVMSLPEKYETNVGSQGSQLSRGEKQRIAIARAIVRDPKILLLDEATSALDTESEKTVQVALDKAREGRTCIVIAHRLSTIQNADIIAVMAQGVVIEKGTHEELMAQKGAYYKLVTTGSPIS

Take `CC(C)c1onc(-c2c(Cl)cccc2Cl)c1COc1ccc(/C=C/c2cccc(C(=O)O)c2)c(Cl)c1`: the Activity result was “inducer [+]”.

(Values after ChEMBL document CHEMBL2074362, “Lithocholic acid decreases expression of bile salt export pump through farnesoid X receptor antagonist activity” (J Biol Chem, 2002).)
